{"source": "patent US20200397853A1", "about": "“TREATMENT OF A HEART DISEASE” (Yeda Research and Development Co. Ltd., priority 2018, published 2020)", "assay_type_in_all_cases": "in vivo, mice", "key": {"[1]": {"test_system": "mouse model of MI by LAD ligation", "assay": "Echocardiography of heart function after myocardial infarction (LAD ligation)", "description": "(§1) Myocardial infarction in adult mice was performed as follows: mice were sedated with isoflurane (Abbott Laboratories) and following tracheal intubation, were artificially ventilated. Lateral thoracotomy at the third intercostal space was performed by blunt dissection of the intercostal muscles following skin incision. Following ligation of the left anterior descending coronary artery, 2 mg/animal/day of\n(§2) GA (batch #164F0105; 24992916) or PBS were injected according to the experimental protocol (described in the Results). Following treatment, thoracic wall incisions were sutured with 6.0 non-absorbable silk sutures, and the skin wound closed using a skin adhesive. Mice were then warmed for several minutes until recovery.\nHeart function was evaluated by transthoracic echocardiography performed on sedated mice (isoflurane, Abbott Laboratories) using a Vevo 3100 VisualSonics device.\nMice were divided to the following experimental groups: […]\n4. Long GA treatment—performing MI followed by GA (2 mg/animal/day) given i.p. from day 0 up to day 14 or until first animal dies. N=5.\nEcho measurements were performed at baseline (day 0), day 2, day 14 and day 35 post MI. Histology analysis was performed post mortem.\nShort GA treatment—performing MI followed by GA (2 mg/animal/day) administered i.p. from day 0 up to day 14. N=10. […]\nIn the clinic, MI patients currently reach medical care in a matter of several hours. To find out the relevance and efficacy of delayed administration of GA, the present inventors created MI by LAD ligation and treated animals at the day of injury, 24 or 48 hours post MI."}, "[2]": {"test_system": "mouse model of MI by LAD ligation", "assay": "Heart section scar assessment (Masson-Trichrome) after MI", "description": "as §1, §2\nMouse heart tissues were fixed in 4% paraformaldehyde (PFA) and sectioned. For analysis of cardiac regeneration, following myocardial infarction procedure, paraffin sections were cut through the entire ventricle from apex to base into serial sections with intervals of 0.3 mm. Paraffin sections were cut frontally to include base to apex in each section. […] Scar size was quantified in the section containing the papillary muscle region using ImageJ software based on Masson's trichrome staining. Scar size was calculated as scar size relative to total section size."}, "infarcted hearts [3]": {"test_system": "infarcted hearts", "assay": "FACS analysis of neutrophils and macrophages in infarcted hearts", "description": "Myocardial infarction in adult mice was performed as follows: mice were sedated with isoflurane (Abbott Laboratories) and following tracheal intubation, were artificially ventilated. Lateral thoracotomy at the third intercostal space was performed by blunt dissection of the intercostal muscles following skin incision. Following ligation of the left anterior descending coronary artery, 2 mg/animal/day of GA (batch #164F0105; 24992916) or PBS were injected according to the experimental protocol (described in the Results). Following treatment, thoracic wall incisions were sutured with 6.0 non-absorbable silk sutures, and the skin wound closed using a skin adhesive. Mice were then warmed for several minutes until recovery. Single cell suspensions of hearts harvested at different time point post MI were generated immediately before analysis by flow cytometry, as previously described^21. Briefly, single hearts were minced and digested in collagenase II/Dispase solution in PBS with 1 mM CaCl2 (2 mg/ml collagenase II, 1.2 U/ml Dispase) for 3 rounds of 15 minutes at 37° C., followed by mechanical separation by pippetation. Digested samples were passed through a 40-μm filter, washed, and suspended in FACS buffer (PBS 0.5% BSA, 2 mM EDTA) for staining. Samples were stained with antibodies from Miltenyi biotec:CD45-Viogreen, CD11b-PE, Ly6G-Vioblue, Ly6C-FITC, F4/80-APC, CCR2-APC-Vio770, MHCII-PE-Vio770. 7-AAD was used as a viability marker. Staining and sample analysis were all performed by standard procedure on a LSR-II FACS machine. GA has an established influence on the immune response, especially the T-helper 2 (Th2) lymphocyte population^22-24. To investigate the molecular mechanisms of GA effects, the present inventors sought out to characterize the immune response of infarcted hearts after GA treatment. First, examining the changes in relevant immune populations. For that, infarcted hearts were analyzed by FACS using markers for neutrophils and macrophages. To follow the dynamics of the immune response after MI, injured hearts at 24 hr, 96 hr and 14 days post MI were harvested. […] The effect of GA diminishes after 96 hr, with the expected reduction in neutrophils. […] This trend was recently shown to promote cardiac regeneration^25, and therefore might explain GA regenerative effect."}, "infarcted hearts [4]": {"test_system": "infarcted hearts", "assay": "Multiplex cytokine ELISA of infarcted hearts", "description": "Myocardial infarction in adult mice was performed as follows: mice were sedated with isoflurane (Abbott Laboratories) and following tracheal intubation, were artificially ventilated. Lateral thoracotomy at the third intercostal space was performed by blunt dissection of the intercostal muscles following skin incision. Following ligation of the left anterior descending coronary artery, 2 mg/animal/day of GA (batch #164F0105; 24992916) or PBS were injected according to the experimental protocol (described in the Results). Following treatment, thoracic wall incisions were sutured with 6.0 non-absorbable silk sutures, and the skin wound closed using a skin adhesive. Mice were then warmed for several minutes until recovery. For native protein extraction, hearts were minced using a mortar and pestle under liquid nitrogen, and the resulting powder was further homogenized using rotor—stator homogenizer with a native extraction buffer (0.5% triton in PBS with protease inhibitor cocktail). Resulting extracts were equilibrated for protein concentration, and subjected to mouse cytokine 16-plex ELISA (#110949MS, Quansys Biosciences, USA) according to manufacturer instructions. To broaden the understanding of the molecular effectors influenced by GA treatment, the cytokine milieu of the GA treated infarcted hearts was analyzed. For that, infarcted hearts were harvested at 24 h, 96 h and 14 days post MI. Native protein lysates were prepared and subjected to multiplex cytokine ELISA. At 24 hr post MI, both IL-6 and IL-10 levels were increased (FIG. 6A). […] Importantly, the levels of IL-6 as well as those of other pro-inflammatory cytokines in GA treated hearts were reduced 14 days post MI (FIG. 6C). These findings might underscore the importance of regulating a transient expression of pro-inflammatory cytokines occurring in a pro-regenerative scenario, similar to what was detected in the GA treated hearts. Another cytokine that was elevated after GA treatment was IL-4 (FIG. 6B). Both IL-10 and IL-4 are considered as anti-inflammatory cytokines that induce Th-2 differentiation, a cell population previously shown to be affected by GA (40-42). […] This chemokine was previously shown to induce IL-6 expression and to have beneficial effect on cardiac remodeling post MI^29. […] Taken together, the differential expression of cytokines in the GA treated infarcted heart might reveal the molecular mechanism that allows GA to modulate the immune response, supporting cardiac regeneration post MI."}, "Stat3": {"test_system": "Stat3", "assay": "Western-blot analysis of pStat3 in hearts post MI", "details": "4 days after injury (FIG. 7)", "description": "as §1, §2\nWestern blotting was performed with the SDS-PAGE Electrophoresis System. Sample extracts were prepared and transferred to PVDF membranes. The following primary antibodies were used: anti-Gapdh (Sigma, PLA0125, 1:3000), anti-pStat3 (1:1000) Horseradish peroxidase anti-mouse, anti-rabbit or anti-goat (Sigma-Aldrich, 1:2000) were used as a secondary antibody."}}, "data": [{"substance": "glatiramer acetate [GA]", "values": [{"measurement": "fractional shortening (FS), reduction from baseline", "setting": "[1]; 35 d after MI, GA i.p. 14 d vs PBS (FIG. 1C)", "result": "smaller reduction"}, {"measurement": "cardiac function (EF and FS)", "setting": "[1]; 35 days after MI, larger group, all animals treated by the protocol, vs PBS (FIGS. 2A, B)", "result": "improved significantly"}, {"measurement": "EF of the 3 representative treated mice", "setting": "[1]; 35 d post MI, vs PBS (FIG. 3B)", "result": "improved EF"}, {"measurement": "Ejection Fraction (EF)", "setting": "[1]; 35 d post injury, GA 2 mg/animal/day i.p. day 0 to 14, vs PBS (FIG. 1A)", "result": "clear beneficial effect"}, {"measurement": "cardiac function (EF, FS), treatment delayed 24 hours", "setting": "[1]; treatment started 24 hours post MI, similar levels to treatment at the day of injury (FIGS. 4A-B)", "result": "improved cardiac function"}, {"measurement": "cardiac function (EF, FS), treatment delayed 48 hours", "setting": "[1]; treatment started 48 hours post MI, similar levels to treatment at the day of injury (FIGS. 4A-B)", "result": "improved cardiac function"}, {"measurement": "cardiac scarring (Masson-Trichrome stained area relative to total area)", "setting": "[2]; 35 days after MI, larger group, vs PBS (FIG. 2C)", "result": "improved significantly"}, {"measurement": "scar area of the 3 representative treated mice", "setting": "[2]; 35 d post MI, Masson-Trichrome, vs PBS (FIG. 3A)", "result": "smaller scar area"}, {"measurement": "fraction of neutrophils in the infarcted hearts", "setting": "infarcted hearts [3]; 24 h post MI, vs PBS (FIGS. 5A, B)", "result": "decreased"}, {"measurement": "macrophage fraction of immune cells", "setting": "infarcted hearts [3]; 24 hr post MI, vs PBS (FIGS. 5C, D)", "result": "increase"}, {"measurement": "effect on macrophage fraction", "setting": "infarcted hearts [3]; after 96 hr post MI", "result": "diminished"}, {"measurement": "effect on neutrophils", "setting": "infarcted hearts [3]; after 96 hr post MI", "result": "diminishes"}, {"measurement": "IL-6 level", "setting": "infarcted hearts [4]; 24 hr post MI (FIG. 6A)", "result": "increased"}, {"measurement": "IL-10 level", "setting": "infarcted hearts [4]; 24 hr post MI (FIG. 6A)", "result": "increased"}, {"measurement": "levels of Monocyte Chemoattractant Protein-1 (MCP-1)", "setting": "infarcted hearts [4]; 96 hr post MI (FIG. 6B)", "result": "significant enhancement"}, {"measurement": "IL-6 level", "setting": "infarcted hearts [4]; 14 days post MI (FIG. 6C)", "result": "reduced"}, {"measurement": "levels of other pro-inflammatory cytokines", "setting": "infarcted hearts [4]; 14 days post MI (FIG. 6C)", "result": "reduced"}, {"measurement": "IL-4 level", "setting": "infarcted hearts [4]; FIG. 6B", "result": "elevated"}, {"measurement": "levels of phosphorylated Stat3 (pStat3)", "setting": "Stat3", "result": "increased levels"}, {"measurement": "levels of phosphorylated Stat3 (pStat3)", "setting": "Stat3; listed as Cop", "result": "upregulation"}]}]}
